How the values were obtained:
[1] = system: MuSCs transplanted into tibialis anterior (TA) muscles of recipient mice; assay: Muscle stem cell transplantation, engraftment by bioluminescence imaging (BLI); assay type: in vivo, mouse; conditions: for BLI signal of engrafted MuSCs after secondary (notexin) injury: notexin re-injury one month after transplant
[2] = system: endogenous MuSCs in TA muscle; assay: Endogenous MuSC BLI in Pax7CreERT2;Rosa26-LSL-Luc mice after cardiotoxin injury; assay type: in vivo, mouse; conditions: 13 nmol three days post-cardiotoxin, BLI days 3-14
Procedure: Bioluminescence imaging: We performed bioluminescence imaging (BLI) using a Xenogen-100 system, as previously described^1,5,6. Briefly, we anesthetized mice using isofluorane inhalation and administered 120 μL D-luciferin (0.1 mmol kg^−1, reconstituted in PBS; Caliper LifeSciences) by intraperitoneal injection. We acquired BLI using a 60 s exposure at F-stop=1.0 at 5 minutes after luciferin injection. Digital images were recorded and analyzed using Living Image software (Caliper LifeSciences). We analyzed images with a consistent region-of-interest (ROI) placed over each hindlimb to calculate a bioluminescence signal. We calculated a bioluminescence signal in radiance (p s^−1 cm^−2 sr^−1) value of 10^4 to define an engraftment threshold. This radiance threshold of 10^4 is approximately equivalent to the total flux threshold in p/s reported previously. This BLI threshold corresponds to the histological detection of one or more GFP+ myofibers^1,5,6. We performed BLI imaging every week after transplantation. […]
We performed bioluminescence imaging (BLI) using a Xenogen-100 system, as previously described (24, 26, 27, 30). […] Digital images were recorded and analyzed using Living Image software (Caliper LifeSciences). We analyzed images with a consistent region-of-interest (ROI) placed over each hindlimb to calculate a bioluminescence signal. We calculated a bioluminescence signal in radiance (p s^−1 cm^−2 sr^−1) value of 10^4 to define an engraftment threshold. […]
Bioluminescent Imaging: For bioluminescence imaging (BLI), we anesthetized mice using isofluorane inhalation and administered 120 μL D-luciferin (0.1 mmol kg^−1, reconstituted in PBS; Caliper LifeSciences) by intraperitoneal injection. […] Digital images were recorded and analyzed using Living Image software (Caliper LifeSciences). We analyzed images with a consistent region-of-interest (ROI) placed over each hindlimb to calculate a bioluminescence signal. We calculated a bioluminescence signal in radiance (p s^−1 cm^−2 sr^−1) value of 10^4 to define an engraftment threshold. […]

Compound | regenerative capacity of MuSCs coinjected with PGE2, by BLI ([1]; 250 GFP/Luc MuSCs into injured TAs of NSG mice (Example 3)) | regenerative capacity of cultured PGE2-treated young MuSCs by BLI ([1]; acute 1-day PGE2 in culture, 250 cells transplanted on day 7 into NOD-SCID mice) | BLI signal of engrafted MuSCs after secondary (notexin) injury [1] | BLI of endogenous MuSCs after injury and PGE2/dmPGE2 [2] | engraftment of aged MuSCs coinjected with dmPGE2 ([1]; aged MuSCs, 250 cells, 13 nmol dmPGE2) | engraftment of young MuSCs coinjected with dmPGE2 ([1]; freshly isolated MuSCs, 250 cells, 13 nmol dmPGE2)
CCCCC[C@H](O)/C=C/[C@H]1[C@H](O)CC(=O)[C@@H]1C/C=C\CCCC(=O)O [PGE2, prostaglandin E2] | nearly two orders of magnitude | enhanced by an order of magnitude | spike in BLI signals | in agreement with the histological data |  | 
CCCCC(C)(C)[C@H](O)/C=C/[C@H]1[C@H](O)CC(=O)[C@@H]1C/C=C\CCCC(=O)O [dmPGE2, 16,16-dimethyl prostaglandin E2] |  |  | further increased in response to notexin injury | in agreement with the histological data | significantly enhanced engraftment | significantly enhanced engraftment
